In US7868205B2, “Inhibitors of histone deacetylase” (MethylGene Inc., priority 2003, dated 2011):

What was measured:
human HDAC-1 = human HDAC-1 (Homo sapiens, UniProt Q13547); experiment: Inhibition of histone deacetylase enzymatic (HDAC-1) activity; type: biochemical; conditions: Table 6C
Method: The following protocol was used to assay the compounds of the invention.
The mixture was pre-incubated for 5 minutes at room temperature. The reaction was started by bringing the temperature to 37° C. and adding 16 μl substrate.

[1] = test system: p21^WAF1/Cip1 tumor suppressor gene; experiment: p21WAF1/Cip1 assay (p21 promoter-driven luciferase reporter); type: cell-based, human; conditions: for P21 (HCT116) μM, effective concentration (EC) for induction of p21: HCT116 cells with p21 promoter-driven luciferase, 16 hours, compared with MS-275
Method: (§1) Table 6C provides data on inhibition of HDAC1 enzyme, on antiproliferative activities (HCT116 human colon cancer cells) of the compounds using 3-[4,5-dimethylthiazol-2-yl-2,5-diphenyltetrazolium]bromide (MTT) assay, as well as induction of p21^WAF1/Cip1 tumor suppressor gene.
HCT116 cells were stably transfected with reporter plasmids encoding the p21 promoter-driven luciferase. Cells were treated with indicated concentration of HDAC inhibitors for 16 hours before cells were harvested and luciferase activity analyzed. The effective concentration (EC) of MS-275 was designated as 1 uM. The ability of HDAC inhibitor was compared with that of MS-275 (T. Suzuki, et. al J. Med. Chem., 1999, 3001-3003).

[2] = test system: HCT116 human colon cancer cells; experiment: MTT assay, antiproliferative activity; type: cell-based; conditions: HCT-116, 72 hours
Method: as §1
Compounds at various concentrations were added to human colon cancer HCT116 cells plated in 96-well plates. Cells were incubated for 72 hours at 37° C. in 5% CO2 incubator. MTT (3-[4,5-dimethylthiazol-2-yl]-2,5 diphenyl tetrazolium bromide, Sigma) was added at a final concentration of 0.5 mg/ml and incubated with the cells for 4 hours before an equal volume of solubilization buffer (50% N,N-dimethylformamide, 20% SDS, pH 4.7) was added onto cultured cells. After overnight incubation, solubilized dye was quantified by colorimetric reading at […] using a reference at 630 nM. OD values were converted to cell numbers according to a standard growth curve of the relevant cell line. The concentration which reduces cell numbers to 50% of those of DMSO-treated cells is determined as MTT IC50,

A549 human lung cancer = experiment: Antineoplastic effects on human tumor xenografts in vivo, A549; conditions: A549 xenograft in mice, daily injection
Method: (§2) Eight to ten week old female BCDI mice (Taconic Labs, Great Barrington, N.Y.) were injected subcutaneously in the flank area with 2×10^6 preconditioned HCTI 16 human colorectal carcinoma cells, A549 human lung cancer, SW48 human colorectal cancer, A431 vulval caracinoma and colo205 human colorectal cancer. Preconditioning of these cells was done by a minimum of three consecutive tumor transplantations in the same strain of nude mice. Subsequently, tumor fragments of approximately 30 mgs were excised and implanted subcutaneously in mice, in the left flank area, under Forene anesthesia (Abbott Labs, Geneva, Switzerland). When the tumors reached a mean volume of 100 mm^3, the mice were treated intravenously, subcutaneously, or intraperitoneally by daily injection, with a solution of the histone deacetylase inhibitor in an appropriate vehicle, such as PBS, DMSO/water, or Tween 80/water, at a starting dose of 10 mg/kg. The optimal dose of the HDAC inhibitor was established by dose response experiments according to standard protocols. Tumor volume was calculated every second day post infusion according to standard methods (e.g., Meyer et al., Int. J. Cancer 43: 851-856 (1989)).

A431 vulval carcinoma = experiment: Antineoplastic effects on human tumor xenografts in vivo, A431; conditions: A431 xenograft in mice, daily injection
Method: as §2

[3] = test system: HCT116 human colorectal carcinoma cells; experiment: Antineoplastic effects on human tumor xenografts in vivo, HCT116; conditions: hct116 xenograft in mice, daily injection
Method: as §2

human HDAC-1, sequence (Q13547 whole entry): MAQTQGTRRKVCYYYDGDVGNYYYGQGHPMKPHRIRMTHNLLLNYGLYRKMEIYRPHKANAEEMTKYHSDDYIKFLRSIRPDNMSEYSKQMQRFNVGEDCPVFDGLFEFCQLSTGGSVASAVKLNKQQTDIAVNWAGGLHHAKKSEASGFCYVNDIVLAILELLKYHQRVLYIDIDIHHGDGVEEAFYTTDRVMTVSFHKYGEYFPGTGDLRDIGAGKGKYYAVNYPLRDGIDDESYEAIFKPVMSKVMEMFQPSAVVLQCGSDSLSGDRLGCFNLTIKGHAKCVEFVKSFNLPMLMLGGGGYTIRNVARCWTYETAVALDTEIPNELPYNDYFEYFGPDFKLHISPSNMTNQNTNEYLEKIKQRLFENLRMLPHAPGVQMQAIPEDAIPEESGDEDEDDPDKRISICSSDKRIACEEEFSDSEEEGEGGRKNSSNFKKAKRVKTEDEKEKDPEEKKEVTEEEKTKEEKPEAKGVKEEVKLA

Row | Compound | IC50 (human HDAC-1) | P21 (HCT116) μM, effective concentration (EC) for induction of p21 [1] | IC50 [2] | antineoplastic effects (A549 human lung cancer) | antineoplastic effects (A431 vulval carcinoma) | antineoplastic effects [3] | effective concentration (EC) for p21 induction ([1]; reference compound, value designated)
1 | CN(C)CCOC(=O)Nc1ccc(C(=O)Nc2cc(-c3cccs3)ccc2N)cc1 [164cc, 2-(dimethylamino)ethyl 4-((2-amino-5-(thiophen-2-yl)phenyl)carbamoyl)phenylcarbamate] | < 1 µM | b (1≦b≦20) | < 1 µM |  |  |  | 
2 | CC(=O)Nc1ccc(C(=O)Nc2cc(-c3cccs3)ccc2N)cc1 [258aa, 4-acetamido-N-(2-amino-5-(thiophen-2-yl)phenyl)benzamide] |  | b (1≦b≦20) | < 1 µM | antineoplastic effects | antineoplastic effects | antineoplastic effects | 
3 | Nc1ccc(-c2cccs2)cc1NC(=O)c1ccc2ncccc2c1 [258cc, N-(2-amino-5-(thiophen-2-yl)phenyl)quinoline-6-carboxamide] | < 1 µM | b (1≦b≦20) | < 1 µM |  |  |  | 
4 | Cc1cc(C)nc(N(C)c2ccc(C(=O)Nc3cc(-c4cccs4)ccc3N)cc2)n1 [258hh, N-(2-amino-5-(thiophen-2-yl)phenyl)-4-((4,6-dimethylpyrimidin-2-yl)(methyl)amino)benzamide] | < 1 µM | b (1≦b≦20) | < 1 µM |  |  |  | 
5 | Nc1ccc(-c2cccs2)cc1NC(=O)c1ccc(OC(=O)c2ccc(O)cc2)cc1 [258mm, 4-((2-amino-5-(thiophen-2-yl)phenyl)carbamoyl)phenyl 4-hydroxybenzoate] | < 1 µM | b (1≦b≦20) | < 1 µM |  |  |  | 
6 | Nc1ccc(-c2cccs2)cc1NC(=O)c1ccsc1 [258nn, N-(2-amino-5-(thiophen-2-yl)phenyl)thiophene-3-carboxamide] | < 1 µM | b (1≦b≦20) | 1 to 20 µM |  |  |  | 
7 | Nc1ccc(-c2cccs2)cc1NC(=O)c1ccc(O)cc1 [258pp, N-(2-amino-5-(thiophen-2-yl)phenyl)-4-hydroxybenzamide] | < 1 µM | b (1≦b≦20) | < 1 µM |  |  |  | 
8 | COc1ccc(C(=O)Nc2cc(-c3cccs3)ccc2N)cc1 [258qq, N-(2-amino-5-(thiophen-2-yl)phenyl)-4-methoxybenzamide] | < 1 µM | b (1≦b≦20) | < 1 µM |  |  |  | 
9 | Cc1nc2ccc(C(=O)Nc3cc(-c4cccs4)ccc3N)cc2o1 [286aa, N-(2-amino-5-(thiophen-2-yl)phenyl)-2-methylbenzo[d]oxazole-6-carboxamide] | < 1 µM | b (1≦b≦20) | < 1 µM |  |  |  | 
10 | CC(=O)Oc1ccc(C(=O)Nc2cc(-c3cccs3)ccc2N)cc1 [Compound 184] | < 1 µM |  | < 1 µM |  |  |  | 
11 | Nc1ccc(-c2cccs2)cc1NC(=O)c1ccc(CN2CCOCC2)cc1 [Compound 242] | < 1 µM |  | < 1 µM |  |  |  | 
12 | COc1cc(OC)c2cc(C(=O)Nc3cc(-c4cccs4)ccc3N)oc2c1 [Compound 245e] | < 1 µM |  | < 1 µM |  |  |  | 
13 | Nc1ccc(-c2cccs2)cc1NC(=O)c1ccc2c(c1)OCO2 [Compound 256a] | < 1 µM |  | < 1 µM |  |  |  | 
14 | Nc1ccc(-c2cccs2)cc1NC(=O)c1ccc2c(c1)OCCO2 [Compound 256b] | < 1 µM |  | < 1 µM |  |  |  | 
15 | COc1cc(C(=O)Nc2cc(-c3cccs3)ccc2N)cc2c1OCO2 [Compound 256c] | < 1 µM |  | < 1 µM |  |  |  | 
16 | Nc1ccc(-c2cccs2)cc1NC(=O)c1ccc2[nH]cnc2c1 [Compound 258d] | < 1 µM |  | < 1 µM |  |  |  | 
17 | Cn1cnc2cc(C(=O)Nc3cc(-c4cccs4)ccc3N)ccc21 [Compound 283] | < 1 µM |  | < 1 µM |  |  |  | 
18 | Cn1nnc2cc(C(=O)Nc3cc(-c4cccs4)ccc3N)ccc21 [Compound 286] | < 1 µM |  | 1 to 20 µM |  |  |  | 
19 | Nc1ccccc1NC(=O)c1ccc(CNC(=O)OCc2cccnc2)cc1 [MS-275, reference compound] |  |  |  |  |  |  | 1 µM
20 | Nc1ccc(-c2cccs2)cc1NC(=O)c1ccc(Cn2c(=O)[nH]c3ccccc3c2=O)cc1 [compound 349] | < 1 µM | b (1≦b≦20) | < 1 µM |  |  |  | 
